From ChEMBL document CHEMBL1135943, “Modifications and structure-activity relationships at the 2-position of 4-sulfonamidopyrimidine derivatives as potent endothelin antagonists” (Bioorg Med Chem Lett, 2002) come the findings set out here.

For data set [1], the target named is T1, Endothelin receptor type B (Rattus norvegicus, UniProt P21451).
T1 sequence (P21451 whole entry): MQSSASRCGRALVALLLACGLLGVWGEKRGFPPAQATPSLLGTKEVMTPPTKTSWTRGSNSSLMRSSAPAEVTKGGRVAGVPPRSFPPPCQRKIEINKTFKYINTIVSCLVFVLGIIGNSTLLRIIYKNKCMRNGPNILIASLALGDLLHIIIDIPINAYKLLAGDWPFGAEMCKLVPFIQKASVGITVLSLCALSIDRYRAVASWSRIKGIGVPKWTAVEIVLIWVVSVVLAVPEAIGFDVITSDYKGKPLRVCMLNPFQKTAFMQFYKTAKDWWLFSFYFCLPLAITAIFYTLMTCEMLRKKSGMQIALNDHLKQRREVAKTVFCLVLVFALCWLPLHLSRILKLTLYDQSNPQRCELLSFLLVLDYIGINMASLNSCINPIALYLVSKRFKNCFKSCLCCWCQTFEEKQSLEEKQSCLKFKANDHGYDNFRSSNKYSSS
As to the kind of experiment: In vitro inhibition of [125 I]ET-1 binding to Endothelin B receptor (ETB-receptor) in rat cerebellum membranes. Type of data set: cell membranes, Membrane.

A short description of data set [2]: Water solubility at pH 7.4. Type of data set: physicochemical.
Another data set has as its target T2, Endothelin-1 receptor (Sus scrofa, UniProt Q29010).
T2 sequence (Q29010 whole entry): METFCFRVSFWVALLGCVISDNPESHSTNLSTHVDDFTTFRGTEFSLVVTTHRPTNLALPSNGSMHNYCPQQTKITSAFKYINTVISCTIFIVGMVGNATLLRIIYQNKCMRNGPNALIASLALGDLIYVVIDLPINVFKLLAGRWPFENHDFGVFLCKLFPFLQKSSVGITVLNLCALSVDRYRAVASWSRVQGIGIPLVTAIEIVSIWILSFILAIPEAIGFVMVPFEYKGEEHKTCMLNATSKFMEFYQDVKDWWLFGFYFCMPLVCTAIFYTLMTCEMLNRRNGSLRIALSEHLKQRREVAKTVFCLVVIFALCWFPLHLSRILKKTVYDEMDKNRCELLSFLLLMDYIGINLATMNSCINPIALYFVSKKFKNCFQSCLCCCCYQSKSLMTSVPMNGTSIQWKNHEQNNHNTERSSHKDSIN
As to the kind of experiment: In vitro inhibition of [125 I]ET-1 binding to Endothelin A receptor in porcine aortic membrane. In kind it is cell membranes.

Data set [3] is described as follows: Water solubility at pH 7.5. In kind it is physicochemical.

Values after ≈ are worked out from the molar mass of the structure shown.

Consider `COc1ccccc1Oc1c(NS(=O)(=O)c2ccc(C(C)(C)C)cc2)ncnc1OCCOc1ncc(Br)cn1`, for which, in data set [1], the IC50 was above 1 nM. Besides, in data set [2], the solubility stood at 160 µg/mL (≈ 254 µM).
`Cc1ccc(-c2c(NS(=O)(=O)c3ccc(C(C)(C)C)cc3)ncnc2OCCOc2ncc(Br)cn2)cc1` returned an IC50 on Endothelin-1 receptor below 0.001 nM. In data set [3], this compound showed a solubility of 1.6 µg/mL (≈ 2.67 µM).
For the compound `Cc1ccc(-c2c(NS(=O)(=O)c3ccc(C(C)(C)C)cc3)nc(-c3cccs3)nc2OCCOc2ncc(Br)cn2)cc1`, on Endothelin-1 receptor, the 50% inhibitory concentration (IC50) was 3.9 nM.
Turning to `COc1ccccc1Oc1c(NS(=O)(=O)c2ccc(C(C)(C)C)cc2)nc(C(F)(F)F)nc1OCCOc1ncc(Br)cn1`, on Endothelin-1 receptor, the IC50 is above 10 nM.
The same measure, in the same setting: the same measure for `COc1ccccc1Oc1c(NS(=O)(=O)c2ccc(C(C)(C)C)cc2)nc(C)nc1OCCOc1ncc(Br)cn1`: 2.7 nM; for `COc1ccccc1Oc1c(NS(=O)(=O)c2ccc(C(C)(C)C)cc2)nc(SCCO)nc1OCCOc1ncc(Br)cn1`: 0.15 nM.
As to `COc1ccccc1Oc1c(NS(=O)(=O)c2ccc(C(C)(C)C)cc2)nc(N2CCC(O)CC2)nc1OCCOc1ncc(Br)cn1`, the figures for the IC50 (in data set [1]; on Endothelin-1 receptor) were above 1 nM and 0.0025 nM, respectively. In addition, the solubility in data set [2] was determined as 2570 µg/mL (≈ 3520 µM).
Take `COc1ccccc1Oc1c(NS(=O)(=O)c2ccc(C(C)(C)C)cc2)nc(NCCO)nc1OCCOc1ncc(Br)cn1`: the IC50 was above 1 nM in data set [1] and 0.0053 nM at Endothelin-1 receptor. Further, the concentration in solution in data set [2] (solubility) was 7320 µg/mL (≈ 10600 µM).
Compound `COc1ccccc1Oc1c(NS(=O)(=O)c2ccc(C(C)(C)C)cc2)nc(OCCO)nc1OCCOc1ncc(Br)cn1` showed an IC50 at Endothelin-1 receptor of 0.2 nM.
`CCCc1nc(NS(=O)(=O)c2ccc(C(C)(C)C)cc2)c(-c2ccc(C)cc2)c(OCCOc2ncc(Br)cn2)n1` yielded an IC50 on Endothelin-1 receptor of 1.6 nM.
As to `COc1ccccc1Oc1c(NS(=O)(=O)c2ccc(C(C)(C)C)cc2)nc(N)nc1OCCOc1ncc(Br)cn1`, at Endothelin-1 receptor, the IC50 was above 10 nM.
As for `COc1ccccc1Oc1c(NS(=O)(=O)c2ccc(C(C)(C)C)cc2)nc(N(C)CCO)nc1OCCOc1ncc(Br)cn1`, on Endothelin-1 receptor, the half-inhibitory concentration (IC50) is above 10 nM.
Still for that read-out and setting: the same measure for `Cc1ccc(-c2c(NS(=O)(=O)c3ccc(C(C)(C)C)cc3)nc(-c3ccccn3)nc2OCCOc2ncc(Br)cn2)cc1`: 0.043 nM.
Take `CNCCNc1nc(NS(=O)(=O)c2ccc(C(C)(C)C)cc2)c(Oc2ccccc2OC)c(OCCOc2ncc(Br)cn2)n1`: the IC50 at Endothelin-1 receptor was above 10 nM.
`CCCc1nc(NS(=O)(=O)c2ccc(C(C)(C)C)cc2)c(Oc2ccccc2OC)c(OCCOc2ncc(Br)cn2)n1` had an IC50 on Endothelin-1 receptor of 0.026 nM.
The compound `Cc1ccc(-c2c(NS(=O)(=O)c3ccc(C(C)(C)C)cc3)nc(-c3ccccc3)nc2OCCOc2ncc(Br)cn2)cc1` returned an IC50 at Endothelin-1 receptor above 10 nM.
The compound `COc1nc(NS(=O)(=O)c2ccc(C(C)(C)C)cc2)c(Oc2ccccc2OC)c(OCCOc2ncc(Br)cn2)n1` had a half-maximal inhibitory concentration (IC50) on Endothelin-1 receptor above 10 nM.
As to `COc1ccccc1Oc1c(NS(=O)(=O)c2ccc(C(C)(C)C)cc2)nc(SCCC(=O)O)nc1OCCOc1ncc(Br)cn1`, the IC50 at Endothelin-1 receptor is 10 nM.
`COc1ccccc1Oc1c(NS(=O)(=O)c2ccc(C(C)(C)C)cc2)nc(N2CCN(C)CC2)nc1OCCOc1ncc(Br)cn1` showed an IC50 on Endothelin-1 receptor of 0.45 nM.
`COc1ccccc1Oc1c(NS(=O)(=O)c2ccc(C(C)(C)C)cc2)nc(NCCCO)nc1OCCOc1ncc(Br)cn1` yielded a concentration for half-maximal inhibition (IC50) on Endothelin-1 receptor above 10 nM.
`Cc1ccc(-c2c(NS(=O)(=O)c3ccc(C(C)(C)C)cc3)nc(C(C)C)nc2OCCOc2ncc(Br)cn2)cc1`: the IC50 at Endothelin-1 receptor came out at 1.1 nM.

The term IC50 denotes the midpoint of a concentration-inhibition curve. What is called solubility is how much of the substance goes into solution per volume. A high value points to a readily soluble substance.
